Reference: ChEMBL document CHEMBL3885861, “Open TG-GATES”

Species on record: Rattus norvegicus
Experiment: Open TG-GATES - Regimen: Single
Assay type: toxicity, organism-based, Sprague-Dawley
Set-up: regimen Single, gender Male, age 6 weeks
Conditions: in vivo, po, route gavage; for TP / gamma-GTP / ALP / AST / CRE / DBIL / IP / K / LDH / Na / RALB / TBIL / TC / TG / ALT: tissue Plasma; for Bas / Eos / Fbg / Hb / Lym / MCH / MCHC / MCV / Mono / Neu / PT / RBC / Ret / APTT / WBC / Ht: tissue Blood; for KIDNEY_L / KIDNEY_R / KIDNEY_TOTAL: tissue Kidney
[1] = 30 mg/kg, 3 h, dose level Middle
[2] = 30 mg/kg, 6 h, dose level Middle
[3] = 30 mg/kg, 9 h, dose level Middle
[4] = 30 mg/kg, 24 h, dose level Middle
[5] = 100 mg/kg, 3 h, dose level High
[6] = 100 mg/kg, 6 h, dose level High
[7] = 100 mg/kg, 9 h, dose level High
[8] = 100 mg/kg, 24 h, dose level High

Cc1cnc(NC(=O)C2=C(O)c3ccccc3S(=O)(=O)N2C)s1 [MELOXICAM]
TP (10 mg/kg, 24 h, dose level Low): 5.4 g/dL | gamma-GTP (10 mg/kg, 24 h, dose level Low): 1 IU/L | TERMINAL_BW [1]: 226 g | Bas [1]: 1% | Eos [1]: 0.8% | Fbg [1]: 212 mg/dL | Hb [1]: 13.3 g/dL | Lym [1]: 79.6% | MCH [1]: 21 pg | MCHC [1]: 33.5% | MCV [1]: 62.7 fL | Mono [1]: 2.4% | Neu [1]: 16.4% | PT [1]: 12 s | RBC [1]: 636.4 x10_4/ul | Ret [1]: 7% | KIDNEY_L [1]: 1 g | KIDNEY_R [1]: 1 g | KIDNEY_TOTAL [1]: 2.1 g | ALP [1]: 811 IU/L | AST [1]: 65.6 IU/L | CRE [1]: 0.4 mg/dL | DBIL [1]: 0.07 mg/dL | IP [1]: 8.4 mg/dL | K [1]: 4.1 meq/L | LDH [1]: 177.8 IU/L | Na [1]: 140.6 meq/L | RALB [1]: 3.2 g/dL | TBIL [1]: 0.1 mg/dL | TC [1]: 66 mg/dL | TG [1]: 66 mg/dL | TP [1]: 5.3 g/dL | gamma-GTP [1]: 0.8 IU/L | TERMINAL_BW [2]: 222.4 g | Bas [2]: 0.6% | Eos [2]: 0.8% | Fbg [2]: 221.6 mg/dL | Lym [2]: 73.6% | MCH [2]: 21.8 pg | MCHC [2]: 33.9% | MCV [2]: 64.3 fL | Mono [2]: 3.4% | Neu [2]: 21.4% | RBC [2]: 632.8 x10_4/ul | Ret [2]: 7.2% | KIDNEY_L [2]: 1 g | KIDNEY_R [2]: 0.9 g | KIDNEY_TOTAL [2]: 1.9 g | ALP [2]: 775.2 IU/L | ALT [2]: 36.2 IU/L | AST [2]: 68.6 IU/L | CRE [2]: 0.4 mg/dL | DBIL [2]: 0.062 mg/dL | IP [2]: 9.3 mg/dL | K [2]: 3.8 meq/L | LDH [2]: 163.2 IU/L | Na [2]: 141.2 meq/L | RALB [2]: 3.4 g/dL | TBIL [2]: 0.1 mg/dL | TC [2]: 70.4 mg/dL | TG [2]: 61.6 mg/dL | TP [2]: 5.5 g/dL | gamma-GTP [2]: 1 IU/L | TERMINAL_BW [3]: 222 g | APTT [3]: 17.1 s | Bas [3]: 0.4% | Eos [3]: 0.8% | Fbg [3]: 235 mg/dL | Hb [3]: 13.3 g/dL | Lym [3]: 72% | MCH [3]: 21.8 pg | MCHC [3]: 34.2% | MCV [3]: 63.8 fL | Mono [3]: 3.8% | Neu [3]: 22.2% | PT [3]: 12.5 s | RBC [3]: 612.6 x10_4/ul | Ret [3]: 7% | WBC [3]: 110.9 x10_2/uL | KIDNEY_L [3]: 1 g | KIDNEY_R [3]: 1 g | KIDNEY_TOTAL [3]: 2 g | ALP [3]: 861.8 IU/L | ALT [3]: 34 IU/L | AST [3]: 62.8 IU/L | CRE [3]: 0.4 mg/dL | DBIL [3]: 0.06 mg/dL | IP [3]: 9.6 mg/dL | K [3]: 4.1 meq/L | LDH [3]: 170.2 IU/L | Na [3]: 141.8 meq/L | RALB [3]: 3.2 g/dL | TBIL [3]: 0.1 mg/dL | TC [3]: 64 mg/dL | TG [3]: 44.4 mg/dL | TP [3]: 5.3 g/dL | gamma-GTP [3]: 1 IU/L | TERMINAL_BW [4]: 240.1 g | Bas [4]: 0.6% | Eos [4]: 0.8% | Fbg [4]: 243.4 mg/dL | Lym [4]: 68% | MCH [4]: 21.8 pg | MCHC [4]: 33.7% | MCV [4]: 64.6 fL | Mono [4]: 3.8% | Neu [4]: 26.4% | PT [4]: 11.6 s | RBC [4]: 609 x10_4/ul | Ret [4]: 6.8% | WBC [4]: 132.5 x10_2/uL | KIDNEY_L [4]: 1.1 g | KIDNEY_R [4]: 1.1 g | KIDNEY_TOTAL [4]: 2.1 g | ALT [4]: 38.4 IU/L | AST [4]: 69.6 IU/L | CRE [4]: 0.4 mg/dL | DBIL [4]: 0.098 mg/dL | IP [4]: 7.8 mg/dL | K [4]: 3.9 meq/L | LDH [4]: 207 IU/L | Na [4]: 142.8 meq/L | RALB [4]: 3.3 g/dL | TBIL [4]: 0.2 mg/dL | TC [4]: 72.2 mg/dL | TG [4]: 108 mg/dL | TP [4]: 5.4 g/dL | gamma-GTP [4]: 1 IU/L | TERMINAL_BW [5]: 226.7 g | Bas [5]: 1% | Eos [5]: 1.4% | Fbg [5]: 222.4 mg/dL | Lym [5]: 75.6% | MCH [5]: 21.7 pg | MCHC [5]: 34% | MCV [5]: 63.9 fL | Mono [5]: 3.6% | Neu [5]: 18.6% | PT [5]: 11.8 s | RBC [5]: 624.4 x10_4/ul | Ret [5]: 7.1% | WBC [5]: 99 x10_2/uL | KIDNEY_L [5]: 1 g | KIDNEY_R [5]: 1 g | KIDNEY_TOTAL [5]: 2 g | ALP [5]: 883 IU/L | ALT [5]: 37.2 IU/L | AST [5]: 68.2 IU/L | CRE [5]: 0.4 mg/dL | DBIL [5]: 0.078 mg/dL | IP [5]: 8.9 mg/dL | K [5]: 4 meq/L | LDH [5]: 187.4 IU/L | Na [5]: 140.6 meq/L | RALB [5]: 3.4 g/dL | TBIL [5]: 0.1 mg/dL | TC [5]: 74.2 mg/dL | TG [5]: 74.4 mg/dL | TP [5]: 5.4 g/dL | gamma-GTP [5]: 0.8 IU/L | TERMINAL_BW [6]: 223.6 g | Bas [6]: 0.4% | Eos [6]: 1% | Fbg [6]: 211.6 mg/dL | Hb [6]: 13.3 g/dL | Lym [6]: 73.4% | MCH [6]: 21.1 pg | MCHC [6]: 34% | MCV [6]: 61.9 fL | Mono [6]: 3.2% | Neu [6]: 22.4% | PT [6]: 12.1 s | RBC [6]: 631.4 x10_4/ul | Ret [6]: 6.7% | WBC [6]: 88.1 x10_2/uL | KIDNEY_L [6]: 1 g | KIDNEY_R [6]: 1 g | KIDNEY_TOTAL [6]: 2 g | ALP [6]: 723.4 IU/L | ALT [6]: 37.4 IU/L | AST [6]: 68 IU/L | CRE [6]: 0.3 mg/dL | DBIL [6]: 0.068 mg/dL | IP [6]: 9.5 mg/dL | K [6]: 4.1 meq/L | LDH [6]: 160.4 IU/L | Na [6]: 140.4 meq/L | RALB [6]: 3.3 g/dL | TBIL [6]: 0.1 mg/dL | TC [6]: 67.6 mg/dL | TG [6]: 43 mg/dL | TP [6]: 5.3 g/dL | gamma-GTP [6]: 1 IU/L | TERMINAL_BW [7]: 223.1 g | APTT [7]: 17.8 s | Bas [7]: 0.4% | Eos [7]: 1% | Fbg [7]: 222.6 mg/dL | Hb [7]: 13.3 g/dL | Ht [7]: 38.4% | Lym [7]: 65.6% | MCH [7]: 21.9 pg | MCHC [7]: 34.5% | MCV [7]: 63.6 fL | Mono [7]: 4% | Neu [7]: 28.8% | RBC [7]: 605 x10_4/ul | Ret [7]: 7.1% | KIDNEY_L [7]: 1 g | KIDNEY_R [7]: 1 g | KIDNEY_TOTAL [7]: 2 g | ALP [7]: 759 IU/L | ALT [7]: 27.4 IU/L | AST [7]: 61 IU/L | CRE [7]: 0.4 mg/dL | DBIL [7]: 0.06 mg/dL | IP [7]: 9.6 mg/dL | K [7]: 4.3 meq/L | LDH [7]: 166 IU/L | Na [7]: 141.4 meq/L | RALB [7]: 3.2 g/dL | TBIL [7]: 0.1 mg/dL | TC [7]: 62 mg/dL | TG [7]: 23.2 mg/dL | TP [7]: 5.3 g/dL | gamma-GTP [7]: 1 IU/L | TERMINAL_BW [8]: 227.5 g | Bas [8]: 0.2% | Eos [8]: 0.8% | Fbg [8]: 300.8 mg/dL | Hb [8]: 9.5 g/dL | Ht [8]: 28.5% | Lym [8]: 67.4% | MCH [8]: 20.9 pg | MCHC [8]: 33.2% | MCV [8]: 62.8 fL | Mono [8]: 2.8% | PT [8]: 11.8 s | RBC [8]: 453.8 x10_4/ul | Ret [8]: 8.4% | KIDNEY_L [8]: 1.1 g | KIDNEY_R [8]: 1.1 g | KIDNEY_TOTAL [8]: 2.1 g | ALP [8]: 504.8 IU/L | ALT [8]: 26.2 IU/L | AST [8]: 51.8 IU/L | CRE [8]: 0.4 mg/dL | DBIL [8]: 0.056 mg/dL | IP [8]: 9.8 mg/dL | K [8]: 4.3 meq/L | LDH [8]: 159.4 IU/L | Na [8]: 141.2 meq/L | RALB [8]: 2.2 g/dL | TBIL [8]: 0.1 mg/dL | TC [8]: 58.6 mg/dL | TG [8]: 69.2 mg/dL | TP [8]: 3.9 g/dL | gamma-GTP [8]: 1 IU/L
